Test results as given in the NIST ThermoML archive (doi:10.1016/j.tca.2013.05.017).

Assay: molar heat capacity at constant pressure
Details: 101.33 kPa, Crystal 2, Small (less than 1 g) adiabatic calorimetry

O=S(=O)([O-])[O-].[Sr+2] [sulfuric acid, strontium salt (1:1)]
Details | molar heat capacity at constant pressure [J/K/mol]
5 K | 0.03816
5.083 K | 0.04505
5.422 K | 0.04233
5.622 K | 0.05543
5.831 K | 0.05464
6.044 K | 0.06693
6.285 K | 0.07062
6.354 K | 0.08024
6.677 K | 0.09728
6.759 K | 0.1018
7.066 K | 0.1205
7.169 K | 0.1252
7.482 K | 0.1475
7.591 K | 0.1545
7.904 K | 0.1777
8.021 K | 0.1873
8.33 K | 0.2151
8.448 K | 0.2273
8.763 K | 0.2543
8.881 K | 0.2707
9.197 K | 0.3046
9.317 K | 0.3217
9.635 K | 0.3631
9.755 K | 0.3798
10 K | 0.4163
10.08 K | 0.427
10.2 K | 0.4451
10.75 K | 0.543
10.86 K | 0.5647
11.64 K | 0.7154
11.75 K | 0.7406
12.54 K | 0.9194
12.65 K | 0.9503
13.45 K | 1.16
13.55 K | 1.197
14.36 K | 1.446
14.47 K | 1.484
15 K | 1.665
15.29 K | 1.771
15.39 K | 1.813
16.22 K | 2.105
16.32 K | 2.148
17.16 K | 2.488
17.26 K | 2.531
18.1 K | 2.928
18.2 K | 2.96
19.05 K | 3.383
19.14 K | 3.432
20 K | 3.864
20.01 K | 3.84
20.1 K | 3.907
21.44 K | 4.638
21.53 K | 4.687
23.36 K | 5.734
23.44 K | 5.783
25 K | 6.782
25.3 K | 6.945
25.37 K | 6.99
27.25 K | 8.25
27.32 K | 8.313
29.2 K | 9.624
30 K | 10.21
30.75 K | 10.74
31.17 K | 11.03
32.62 K | 12.1
33.14 K | 12.44
34.6 K | 13.58
34.76 K | 13.71
35 K | 13.95
35.1 K | 13.99
36.58 K | 15.12
36.73 K | 15.23
37.07 K | 15.51
38.55 K | 16.71
38.7 K | 16.81
40 K | 17.87
40.53 K | 18.29
40.68 K | 18.39
42.52 K | 19.85
42.65 K | 19.96
44.51 K | 21.4
44.63 K | 21.49
45 K | 21.83
46.49 K | 22.95
46.61 K | 23
48.48 K | 24.46
48.59 K | 24.49
50 K | 25.73
50.48 K | 26
50.57 K | 26.02
52.46 K | 27.61
52.55 K | 27.61
54.45 K | 29.14
54.52 K | 29.14
55 K | 29.5
56.45 K | 30.48
